What all share (experiment): inhibition of tumour cell growth, NCI panel, 48 h
The subject of assay [1] is HL-60(TB) leukemia.
Assay [2] relates to HT29 colon.
Assay [3] has as its system IGROV1 ovarian.
Assay [4] concerns K-562 leukemia.
Assay [5] has as its system NCI-H226 lung.
The subject of assay [6] is OVCAR-8 ovarian.
Assay [7] deals with RPMI-8226 leukemia.
Assay [8] concerns RXF 393 renal.
Assay [9] deals with TK-10 renal.
Assay [10] concerns UACC-62 melanoma.

Where “and” joins values, the source holds several entries; their conditions need not be identical. Equal values may be shown once.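 1) Cells in 96-well plates. 2) Compound, 48 h, 5 concentrations. 3) Linear interpolation between surrounding doses. 4) Unreached endpoint = highest concentration. GI50: concentration for 50% inhibition of growth. The concentration for full growth arrest is given as TGI.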

Take `CC(=O)O[C@H]1C(=O)[C@@]2(C)[C@H]([C@H](OC(=O)c3ccccc3)[C@]3(O)C[C@H](OC(=O)[C@H](OC(=O)CCC(=O)OC4CCC(S/N=C(N)/N=C(\N)N(C)C)CC4)[C@@H](NC(=O)c4ccccc4)c4ccccc4)C(C)=C1C3(C)C)[C@]1(OC(C)=O)CO[C@@H]1C[C@@H]2O` (stereo not given in full): the GI50 is 0.0101 µM in assay [1]; less than 0.005 µM in assay [2]; 0.113 µM in assay [3]; 0.00692 µM in assay [4]; 23.4 µM in assay [5]; 0.0221 µM in [6]. For the same compound, the GI50 in [7] was 0.00605 µM; in assay [8], 0.0135 µM; in [9], 0.0205 µM; in [10], less than 0.0155 µM. In addition, the TGI in [1] was 0.0234 µM; in [2] it was more than 50 µM; in assay [3], more than 50 µM; in [4] it was more than 50 µM; in assay [5], more than 50 µM; in assay [6] it was more than 50 µM. Also, the TGI in assay [7] was more than 43.5 µM; in [8], more than 50 µM; in [9] it was 1.65 µM; in [10], more than 25.5 µM.
In the case of `O=[N+]([O-])c1ccccc1/C=C/C=C1c2ccccc2-c2ccccc21`, the GI50 in assay [1], in assay [2], in assay [3], in assay [4], in [5] and in [6] was more than 100 µM throughout. Besides, the GI50 in assay [7], in assay [8], in [9] and in assay [10] was more than 100 µM each time. Further, the TGI in [1], in [2], in [3], in assay [4], in [5] and in [6] was more than 100 µM throughout. The TGI in [7], in assay [8], in assay [9] and in assay [10] was more than 100 µM throughout.
Turning to `C[C@@H](Oc1cc(-c2cnn(C3CC4(CCNCC4)C3)c2)cnc1N)c1c(F)ccc(Cl)c1Cl`, the GI50 is 1.28 µM in assay [1]; 0.446 µM in assay [2]; 2.23 µM in [3]; 0.228 µM in assay [4]; 2.51 µM in [5]; 2.71 µM in [6]. For the same compound, the GI50 in assay [7] is 1.63 µM; in assay [8] it was 1.35 µM; in assay [9] it was 1.85 µM; in [10], 1.55 µM. Further, the TGI in assay [1] amounted to 3.36 µM; in [2] it was 2.17 µM; in assay [3], 7.91 µM; in assay [4], 1.4 µM; in [5], 17.5 µM; in assay [6] it was 12.3 µM. In addition, the TGI is 4.95 µM in assay [7], 2.73 µM in assay [8], 4.7 µM in assay [9] and 3.16 µM in assay [10].
Take `O=C(CSc1nc2sc3c(c2c(=O)n1-c1ccccc1)CCCCC3)N/N=C/c1ccc(F)cc1`: the GI50 in assay [1] is more than 100 µM; in [2], 2.4 µM; in assay [3], 3.32 µM; in assay [4] it was 5.48 µM; in assay [5], 2.09 µM; in assay [6] it was 1.58 µM. The GI50 in assay [7] was 29.5 µM; in [8], 2.39 µM; in [9], 1.6 µM; in [10], 11.4 µM. For the same compound, the TGI was more than 100 µM in assay [1]; 7.04 µM in [2]; 19.2 µM in [3]; more than 100 µM in [4]; 4.84 µM in assay [5]; 5.19 µM in assay [6]. Also, the TGI in assay [7] was more than 100 µM; in assay [8], 7.18 µM; in assay [9] it was 4.16 µM; in [10] it was 27.1 µM.
Take `C[C@]12CC[C@H]3[C@@H](CC=C4C[C@@H](O)CC[C@@]43C)[C@@H]1C/C(=C\c1cccc(OCCCn3ccnc3)c1)[C@@H]2O`: the GI50 was 8.1 µM in assay [1]; 3.85 µM in assay [2]; 16.8 µM in assay [3]; 3.38 µM in assay [4]; 16.1 µM in assay [5]; 14.4 µM in assay [6]. In addition, the GI50 was 5.32 µM in assay [7], 4.7 µM in assay [8], 16.6 µM in assay [9] and 13.2 µM in assay [10]. Also, the TGI in [1] is 34.3 µM; in [2], 18.1 µM; in assay [3], 33.6 µM; in assay [4], more than 58.4 µM; in assay [5] it was 43.4 µM; in assay [6] it was 43.1 µM. The TGI in [7] is 25 µM; in assay [8], 20.8 µM; in assay [9], 31.3 µM; in assay [10] it was 29 µM.
As for `CCN(CC)CCCN1C(=O)c2c(c(C)c3c(oc4cc(O)ccc43)c2C)C1=O`, the GI50 in assay [1] is 1.69 µM; in [2] it was 1.39 µM; in [3] it was 1.74 µM; in [4], 0.188 µM; in [5], 4.47 µM; in assay [6], 1.78 µM. The GI50 in [7] is 1.93 µM; in [8] it was 1.54 µM; in [9] it was 1.77 µM; in [10], 1.92 µM. The TGI amounted to 3.67 µM in assay [1]; 2.85 µM in [2]; 3.4 µM in assay [3]; 0.464 µM in assay [4]; 27.4 µM in [5]; 3.61 µM in [6]. The TGI stood at 4.17 µM in assay [7], 3.24 µM in assay [8], 3.28 µM in assay [9] and 3.44 µM in assay [10].
On to `OCC1OC(O)C(N=Cc2ccc3c(c2)OCO3)C(O)C1O` (stereo not given), for which the TGI in assay [1], in assay [2], in assay [3], in assay [4], in [5] and in [6] was more than 100 µM throughout. For the same compound, the TGI in assay [7], in assay [8], in assay [9] and in assay [10] was more than 100 µM in each case.
For the compound `O=C(Nc1ccc(N=Nc2ccccc2)cc1)Sc1ccccc1C(=O)O`, the TGI in assay [1] was more than 100 µM; in [2], more than 100 µM; in assay [3], 2.48 µM; in assay [4] it was more than 100 µM; in assay [5], more than 100 µM; in [6], more than 100 µM. Also, the TGI in assay [7], in assay [8], in assay [9] and in assay [10] was more than 100 µM each time.
Take `CNC(=O)c1ccc(Nc2nc(OC3CCCC3)c3c(-c4ccc5nc(C)oc5c4)c[nH]c3n2)c(OC)c1`: the GI50 in assay [1] is 29.2 µM; in assay [2], 4.99 µM; in assay [3] it was 0.448 µM; in [4], 0.746 µM; in [5], 9.04 µM; in assay [6] it was 0.6 µM. Further, the GI50 was 0.481 µM in [7], more than 100 µM in [8], more than 68.7 µM in [9] and 2.58 µM in assay [10]. The TGI in assay [1], in [2], in assay [3], in assay [4], in [5] and in assay [6] was more than 100 µM throughout. In addition, the TGI in assay [7] is more than 20.4 µM; in [8] it was more than 100 µM; in [9], more than 100 µM; in assay [10] it was more than 100 µM.
In the case of `CC1=Cc2cc3[n-]c(cc4nc(cc5[n-]c(cc1n2)c(C)c5CCC(=O)O)C(CCC(=O)O)=C4C)cc3C.[Cu+2]`, the GI50 was > 1 µM and 22.2 µM in [1]; more than 100 µM in [2]; > 1 µM and 12.5 µM in assay [3]; > 1 µM and 13.6 µM in [4]; > 1 µM and 62 µM in [5]; > 1 µM and 19.6 µM in [6]. In addition, the GI50 in assay [7] is > 1 µM and 53.9 µM; in assay [8], > 1 µM and 15.4 µM; in assay [9], > 1 µM and 17.6 µM; in assay [10], > 1 µM and 6.04 µM. The TGI in assay [1] is > 1 µM and 51.2 µM; in [2] it was more than 100 µM; in assay [3], > 1 µM and 35.9 µM; in [4], more than 60.6 µM; in [5] it was more than 87.2 µM; in [6], > 1 µM and 54.7 µM. The TGI in assay [7] is more than 80 µM; in assay [8], > 1 µM and 33.9 µM; in assay [9] it was > 1 µM and 38.3 µM; in [10] it was > 1 µM and 15.8 µM.
On to `COc1cc(-c2ccc(-[n+]3nc(-c4ccc([N+](=O)[O-])cc4)nn3-c3ccc([N+](=O)[O-])cc3)c(OC)c2)ccc1-[n+]1nc(-c2ccc([N+](=O)[O-])cc2)nn1-c1ccc([N+](=O)[O-])cc1`, for which the GI50 in [1] is 1.91 µM; in assay [2], 3.43 µM; in assay [3], 0.707 µM; in assay [4] it was 3.39 µM; in assay [5] it was 12.1 µM; in assay [6], 12.9 µM. The GI50 was 10.1 µM in assay [7], 2.25 µM in assay [8], 4.61 µM in assay [9] and 22 µM in assay [10]. For the same compound, the TGI is more than 46.2 µM in assay [1]; 15.2 µM in assay [2]; 51.7 µM in [3]; more than 44.6 µM in assay [4]; 45.7 µM in [5]; more than 71.5 µM in assay [6]. Further, the TGI in assay [7] was 67.8 µM; in [8] it was 6.08 µM; in assay [9], 17.5 µM; in assay [10], more than 82.8 µM.
In the case of `O=C(Nc1nc(-c2ccc(Cl)cc2)cs1)c1ccc(O)c(O)c1`, the GI50 in [1] is 2.85 µM; in [2] it was 11.6 µM; in [3], 2.38 µM; in assay [4] it was 3.46 µM; in assay [5], 4.65 µM; in [6], 4.14 µM. Further, the GI50 in assay [7] is 2.14 µM; in assay [8] it was 3.82 µM; in [9] it was 2.87 µM; in assay [10] it was 4.24 µM. Besides, the TGI in assay [1] is 9.53 µM; in assay [2], 24.7 µM; in assay [3], 8.04 µM; in assay [4], 20 µM; in [5], 19.7 µM; in [6], 16.7 µM. Further, the TGI in [7] worked out at 10.7 µM; in [8], 17 µM; in assay [9] it was 9.98 µM; in assay [10], 18.1 µM.
For the compound `COc1ccc(/C(Cl)=C(\C=O)c2cc(OC)c(OC)c(OC)c2)cc1OC`, the TGI in assay [1] was 58.6 µM; in assay [2] it was 87.7 µM; in assay [3] it was more than 100 µM; in [4], more than 100 µM; in assay [5] it was 70.6 µM; in assay [6], more than 63.5 µM. For the same compound, the TGI in [7] was 77 µM; in assay [8], more than 100 µM; in [9] it was more than 100 µM; in assay [10], more than 100 µM.
Regarding `CCOC(=O)c1ccc2[nH]c(Cc3[nH]c4ccc(C(=O)OCC)cc4c3C)c(C)c2c1`, the GI50 is 3.81 µM in assay [1]; 0.821 µM in [2]; 2.35 µM in assay [3]; 0.832 µM in [4]; 4.7 µM in assay [5]; 1.21 µM in [6]. Also, the GI50 is 2.66 µM in assay [7], 2.75 µM in [8], 4.28 µM in [9] and 2.21 µM in [10]. Moreover, the TGI was 46.8 µM in assay [1]; 8.2 µM in [2]; 17 µM in assay [3]; 17.5 µM in assay [4]; 23.2 µM in assay [5]; 11.7 µM in assay [6]. Also, the TGI stood at 35.6 µM in assay [7], 14.7 µM in [8], 17.4 µM in assay [9] and 25.2 µM in assay [10].
`Nc1c(C(=O)Nc2cccc3ccccc23)sc2nc3c(cc12)CCCCC3`: the GI50 in assay [1] was 0.202 µM; in assay [2] it was 1.05 µM; in assay [3], 1.9 µM; in [4] it was 0.216 µM; in assay [5], 7.58 µM; in [6] it was 1.68 µM. For the same compound, the GI50 in assay [7] is 1.16 µM; in assay [8] it was 0.992 µM; in assay [9], 43.4 µM; in assay [10] it was 0.219 µM. Besides, the TGI is 2.87 µM in [1]; 4 µM in assay [2]; more than 50 µM in [3]; more than 50 µM in assay [4]; more than 50 µM in assay [5]; more than 50 µM in assay [6]. Moreover, the TGI in [7], in [8], in assay [9] and in assay [10] was more than 50 µM throughout.

For the origin of these results see PubChem BioAssay (NCI).
